Data as given in patent US11053204B2, “Pyrimidinyloxy benzene derivatives as herbicides” (FMC Corporation, priority 2015, dated 2021).

Tests used:
Assay type in all cases: in vivo
[1] = test system: speedwell (bird's-eye speedwell, Veronica persica); test: Test C postemergence, plant response rating; settings: for Speedwell plant response rating: scale 0 to 100 (0 no effect, 100 complete control)
Method in brief: (§1)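 After sowing in loam–sand blend or silt loam, pots were sprayed preemergence; separately grown 1- to 4-leaf plants were sprayed postemergence. Following 13 to 15 d under greenhouse conditions, injury was rated visually on a 0 to 100 scale.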

[2] = test system: pigweed, palmer (palmer pigweed, Amaranthus palmeri); test: Test C postemergence, plant response rating; settings: for Pigweed, Palmer plant response rating: scale 0 to 100 (0 no effect, 100 complete control)
Method in brief: as §1

[3] = test system: wild poinsettia (Euphorbia heterophylla); test: Test C postemergence, plant response rating; settings: for Poinsettia, Wild plant response rating: scale 0 to 100 (0 no effect, 100 complete control)
Method in brief: as §1

[4] = test system: surinam grass (Brachiaria decumbens); test: Test C postemergence, plant response rating
Method in brief: as §1

[5] = test system: field violet (Viola arvensis); test: Test C postemergence, plant response rating; settings: for Field Violet plant response rating: scale 0 to 100 (0 no effect, 100 complete control)
Method in brief: as §1

[6] = test system: johnsongrass (Sorghum halepense); test: Test C postemergence, plant response rating; settings: for Johnsongrass plant response rating: scale 0 to 100 (0 no effect, 100 complete control)
Method in brief: as §1

[7] = test system: nightshade (eastern black nightshade, Solanum ptycanthum); test: Test C postemergence, plant response rating; settings: for Nightshade plant response rating: scale 0 to 100 (0 no effect, 100 complete control)
Method in brief: as §1

[8] = test system: windgrass (Apera spica-venti); test: Test C postemergence, plant response rating
Method in brief: as §1

[9] = test system: field poppy (Papaver rhoeas); test: Test C postemergence, plant response rating; settings: for Field Poppy plant response rating: scale 0 to 100 (0 no effect, 100 complete control)
Method in brief: as §1

[10] = test system: Canada thistle (Cirsium arvense); test: Test C postemergence, plant response rating; settings: for Canada Thistle plant response rating: scale 0 to 100 (0 no effect, 100 complete control)
Method in brief: as §1

[11] = test system: wild mustard (Sinapis arvensis); test: Test C postemergence, plant response rating; settings: for Mustard, Wild plant response rating: scale 0 to 100 (0 no effect, 100 complete control)
Method in brief: as §1

[12] = test system: geranium, cutleaf (cutleaf geranium, Geranium dissectum); test: Test C postemergence, plant response rating; settings: for Geranium, Cutleaf plant response rating: scale 0 to 100 (0 no effect, 100 complete control)
Method in brief: as §1

[13] = test system: buckwheat, wild (wild buckwheat, Polygonum convolvulus); test: Test C postemergence, plant response rating; settings: for Buckwheat, Wild plant response rating: scale 0 to 100 (0 no effect, 100 complete control)
Method in brief: as §1

[14] = test system: wild poinsettia (Euphorbia heterophylla); test: Test C preemergence, plant response rating
[15] = test system: pigweed, palmer (palmer pigweed, Amaranthus palmeri); test: Test C preemergence, plant response rating
[16] = test system: johnsongrass (Sorghum halepense); test: Test C preemergence, plant response rating
[17] = test system: nightshade (eastern black nightshade, Solanum ptycanthum); test: Test C preemergence, plant response rating
[18] = test system: windgrass (Apera spica-venti); test: Test C preemergence, plant response rating
[19] = test system: barnyardgrass (Echinochloa crus-galli); test: Test C preemergence, plant response rating; settings: Preemergence
[20] = 125 g ai/ha, scale 0 to 100 (0 no effect, 100 complete control)

N#Cc1cccc(Oc2ncc(Cl)cn2)c1COCCC(F)(F)F [Compound 80]
85: Plant response rating, Field Violet ([5]; 31 g ai/ha, scale 0 to 100) | Field Poppy plant response rating ([9]; 62 g ai/ha) | Field Poppy plant response rating ([9]; 125 g ai/ha) | Canada Thistle plant response rating ([10]; 125 g ai/ha) | Plant response rating, Poinsettia, Wild ([14]; 125 g ai/ha, scale of 0 to 100) | Plant response rating, Pigweed, Palmer ([15]; 31 g ai/ha, scale 0 to 100) | Plant response rating, Nightshade ([17]; 62 g ai/ha, scale 0 to 100)
35: Plant response rating, Pigweed, Palmer ([2]; 31 g ai/ha, scale 0 to 100) | Plant response rating, Geranium, Cutleaf ([12]; 31 g ai/ha, scale 0 to 100) | Geranium, Cutleaf plant response rating ([12]; 62 g ai/ha)
80: Plant response rating, Mustard, Wild ([11]; 31 g ai/ha, scale 0 to 100) | Mustard, Wild plant response rating ([11]; 62 g ai/ha)
10: Plant response rating, Surinam Grass ([4]; 16 g ai/ha, scale of 0 to 100) | Plant response rating, Surinam Grass ([4]; 31 g ai/ha, scale 0 to 100) | Plant response rating, Barnyardgrass ([19]; 16 g ai/ha, scale 0 to 100)
100: Plant response rating, Speedwell ([1]; 31 g ai/ha, scale 0 to 100) | Speedwell plant response rating ([1]; 62 g ai/ha) | Speedwell plant response rating ([1]; 125 g ai/ha) | Plant response rating, Pigweed, Palmer ([15]; 62 g ai/ha, scale 0 to 100) | Plant response rating, Windgrass ([18]; 62 g ai/ha, scale 0 to 100) | Plant response rating, Windgrass ([18]; 125 g ai/ha, scale of 0 to 100) | Plant response rating, Barnyardgrass ([19]; 125 g ai/ha, scale of 0 to 100)
75: Poinsettia, Wild plant response rating ([3]; 125 g ai/ha) | Plant response rating, Field Violet ([5]; 16 g ai/ha, scale of 0 to 100) | Nightshade plant response rating ([7]; 125 g ai/ha) | Plant response rating, Field Poppy ([9]; 31 g ai/ha, scale 0 to 100) | Plant response rating, Canada Thistle ([10]; 16 g ai/ha, scale of 0 to 100) | Plant response rating, Canada Thistle ([10]; 31 g ai/ha, scale 0 to 100) | Canada Thistle plant response rating ([10]; 62 g ai/ha) | Plant response rating, Mustard, Wild ([11]; 16 g ai/ha, scale of 0 to 100) | Buckwheat, Wild plant response rating ([13]; 62 g ai/ha)
65: Plant response rating, Poinsettia, Wild ([3]; 16 g ai/ha, scale of 0 to 100) | Plant response rating, Poinsettia, Wild ([3]; 31 g ai/ha, scale 0 to 100) | Plant response rating, Nightshade ([7]; 31 g ai/ha, scale 0 to 100)
5: Plant response rating, Johnsongrass ([6]; 16 g ai/ha, scale of 0 to 100) | Plant response rating, Johnsongrass ([6]; 31 g ai/ha, scale 0 to 100) | Johnsongrass plant response rating ([6]; 62 g ai/ha) | Johnsongrass plant response rating ([6]; 125 g ai/ha) | Plant response rating, Windgrass ([8]; 31 g ai/ha, scale 0 to 100)
55: Plant response rating, Johnsongrass ([16]; 62 g ai/ha, scale 0 to 100)
90: Plant response rating, Speedwell ([1]; 16 g ai/ha, scale of 0 to 100) | Field Violet plant response rating ([5]; 62 g ai/ha) | Mustard, Wild plant response rating ([11]; 125 g ai/ha) | Plant response rating, Nightshade ([17]; 125 g ai/ha, scale of 0 to 100)
40: Plant response rating, Poinsettia, Wild ([14]; 62 g ai/ha, scale 0 to 100)
0: Plant response rating, Windgrass ([8]; 16 g ai/ha, scale of 0 to 100)
98: Plant response rating, Pigweed, Palmer ([15]; 125 g ai/ha, scale of 0 to 100)
60: Pigweed, Palmer plant response rating ([2]; 125 g ai/ha) | Plant response rating, Nightshade ([7]; 16 g ai/ha, scale of 0 to 100) | Geranium, Cutleaf plant response rating ([12]; 125 g ai/ha) | Plant response rating, Johnsongrass ([16]; 125 g ai/ha, scale of 0 to 100) | Plant response rating, Windgrass ([18]; 31 g ai/ha, scale 0 to 100)
95: Field Violet plant response rating ([5]; 125 g ai/ha) | Buckwheat, Wild plant response rating ([13]; 125 g ai/ha)
30: Plant response rating, Pigweed, Palmer ([2]; 16 g ai/ha, scale of 0 to 100) | Windgrass plant response rating [8, 20] | Plant response rating, Geranium, Cutleaf ([12]; 16 g ai/ha, scale of 0 to 100) | Plant response rating, Poinsettia, Wild ([14]; 31 g ai/ha, scale 0 to 100) | Plant response rating, Johnsongrass ([16]; 31 g ai/ha, scale 0 to 100) | Plant response rating, Barnyardgrass ([19]; 31 g ai/ha, scale 0 to 100)
25: Surinam Grass plant response rating [4, 20]
70: Pigweed, Palmer plant response rating ([2]; 62 g ai/ha) | Poinsettia, Wild plant response rating ([3]; 62 g ai/ha) | Nightshade plant response rating ([7]; 62 g ai/ha) | Plant response rating, Field Poppy ([9]; 16 g ai/ha, scale of 0 to 100) | Plant response rating, Buckwheat, Wild ([13]; 16 g ai/ha, scale of 0 to 100) | Plant response rating, Buckwheat, Wild ([13]; 31 g ai/ha, scale 0 to 100) | Plant response rating, Nightshade ([17]; 31 g ai/ha, scale 0 to 100) | Plant response rating, Barnyardgrass ([19]; 62 g ai/ha, scale of 0 to 100)
